Test results reported in ChEMBL document CHEMBL1201862, “PubChem BioAssay data set” (2004).
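These data come from cells grown in 96-well plates and exposed to compound for 48 hours at five concentrations. GI50: concentration for 50% inhibition of growth.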 Activity calls are given as the source filed them. Cut-off read from the data, not from the text of the source: active = GI50 up to about 1.1 µM and inactive = higher.

Legend:
Experiment in all cases: inhibition of tumour cell growth, NCI panel, 48 h
HOP-92 = tested on: HOP-92
HT-29 = tested on: HT-29
SK-OV-3 = tested on: SK-OV-3
NCI-H522 = tested on: NCI-H522
ACHN = tested on: ACHN
UACC-257 = tested on: UACC-257
IGROV-1 = tested on: IGROV-1
SNB-75 = tested on: SNB-75
NCI-H226 = tested on: NCI-H226
SK-MEL-28 = tested on: SK-MEL-28
OVCAR-5 = tested on: OVCAR-5
SN12C = tested on: SN12C
SR = tested on: SR
U-251 = tested on: U-251
SF-539 = tested on: SF-539
Malme-3M = tested on: Malme-3M
786-0 = tested on: 786-0
SNB-19 = tested on: SNB-19
SK-MEL-5 = tested on: SK-MEL-5
DU-145 = tested on: DU-145

Measured: GI50

Cc1ccc(C2=Nc3ccccc3NC(=O)C2)cc1
inactive: HOP-92 26.9 µM | HT-29 > 100 µM | SK-OV-3 > 100 µM | NCI-H522 98.4 µM | ACHN > 100 µM | UACC-257 > 100 µM | IGROV-1 > 100 µM | SNB-75 43.8 µM | NCI-H226 12.7 µM | SK-MEL-28 > 100 µM | OVCAR-5 > 100 µM | SN12C > 100 µM | SR > 100 µM | U-251 32.2 µM | SF-539 > 100 µM | Malme-3M > 100 µM | 786-0 77.8 µM | SNB-19 > 100 µM | SK-MEL-5 > 100 µM

CCNC(=O)OCc1c(COC(=O)NCC)c(-c2ccc(Cl)c(Cl)c2)n2c1CCC2
inactive: HOP-92 5.5 µM | HT-29 18.3 µM | NCI-H522 6.58 µM | ACHN 4.88 µM | UACC-257 12.2 µM | IGROV-1 9.31 µM | SNB-75 11.1 µM | NCI-H226 1.75 µM | SK-MEL-28 14.9 µM | OVCAR-5 20.3 µM | SR 3.21 µM | U-251 10.5 µM | SF-539 11.5 µM | Malme-3M 16.6 µM | 786-0 8.63 µM | SNB-19 21.5 µM | SK-MEL-5 14.9 µM

CC1OC(n2cc(F)c(=O)[nH]c2=O)C=CC1=O (centres undefined)
inactive: HOP-92 17.7 µM | HT-29 23 µM | SK-OV-3 29 µM | NCI-H522 9.38 µM | ACHN 18 µM | UACC-257 17.9 µM | IGROV-1 29.8 µM | SNB-75 17.9 µM | NCI-H226 24.7 µM | SK-MEL-28 17.7 µM | OVCAR-5 16 µM | SN12C 16.4 µM | SR 21.5 µM | U-251 14.8 µM | SF-539 16.4 µM | Malme-3M 18.7 µM | 786-0 15.9 µM | SNB-19 17.4 µM | SK-MEL-5 17.4 µM

CSC1NC=Nc2c1sc(=S)n2-c1ccccc1 (centres undefined)
inactive: HOP-92 83.8 µM | HT-29 > 100 µM | SK-OV-3 > 100 µM | NCI-H522 > 100 µM | ACHN > 100 µM | UACC-257 > 100 µM | IGROV-1 > 100 µM | SNB-75 28.4 µM | NCI-H226 > 100 µM | SK-MEL-28 > 100 µM | OVCAR-5 > 100 µM | SN12C > 100 µM | SR > 100 µM | U-251 > 100 µM | SF-539 > 100 µM | Malme-3M > 100 µM | 786-0 > 100 µM | SNB-19 > 100 µM | SK-MEL-5 > 100 µM

O=C1CC(c2cccc(Cl)c2)Oc2ccccc21 (centres undefined)
inactive: HOP-92 15.2 µM | HT-29 17.5 µM | SK-OV-3 20.9 µM | ACHN 16.2 µM | UACC-257 16.9 µM | IGROV-1 15 µM | SNB-75 22.6 µM | NCI-H226 21.4 µM | SK-MEL-28 18.6 µM | DU-145 17.7 µM | U-251 25.5 µM | SF-539 18.2 µM | 786-0 16.7 µM | SNB-19 15.3 µM | SK-MEL-5 17.9 µM
